# From paper PMC5920042, “KH176 Safeguards Mitochondrial Diseased Cells from Redox Stress-Induced Cell Death by Interacting with the Thioredoxin System/Peroxiredoxin Enzyme Machinery” (Scientific Reports, 2018)
# Several values for one entry are separate records, joined by “and”; a condition that tells them apart may be missing. Equal values may be shown once. Marks after values point to notes of the source that are not given here.
# Tests used:
# [1] = Single dose pharmacokinetics and bioavailability study; type: in vivo, male C57BL/6 mice; conditions: mouse
# Experimental: (§1) Pharmacokinetics and toxicokinetics measurements were performed by the commercial Contract Research Organizations Sai Life Sciences and WuXi AppTec, respectively, according to their standard protocols and in accordance with relevant guidelines and regulations. C57 BL/6 mice, Sprague Dawley rats, and Beagle dogs were studied.
# P4 cell line [2] = assay: Redox Stress Survival assay (BSO-induced cell death, Calcein AM viability); type: cell-based, human
# Experimental: Cells were seeded at a density of 4 × 10^3 cells/well into 96-wells black plates and incubated for 24 h. To induce redox stress, semi-logarithmic dilutions of buthionine sulphoximine (BSO, #B2515, Sigma Aldrich) up to 100 µM were added to the cells in culture medium and incubated for 24 h. Cell viability was assessed by quantification of cellular conversion of Calcein AM into fluorescent Calcein. Briefly, after having discarded the BSO containing medium, cells were washed once with M199 without phenol red and loaded with 2 µM Calcein AM (#65-0853-39, Affimetrix eBioscience) in M199 without phenol red for 25 min. At the end of the incubation period, the excess of the dye was washed with M199 without phenol red and Calcein fluorescence was measured with a scanning microplate reader (BMG FLUOstar Omega; Ex. 480 nm, Em. 520 nm). For compound screening and target identification measurements cells were treated with 200 µM BSO alone or in co-incubation with semi-logarithmic dilutions of the test compound. Additionally, where indicated, increasing doses of Auranofin (AFN, #BML-EI206-0100, Enzo) or Aurothioglucose (ATG, #A0606, Sigma Aldrich) were co-incubated with BSO and the test compound. In all cases, cell viability was assessed 24 h after the treatment.
# [3] = 28-day repeat oral dose toxicity study, toxicokinetics; type: in vivo, Sprague Dawley rats; conditions: rat
# Experimental: as §1
# [4] = tested on: primary human skin fibroblasts; assay: Cellular superoxide detection by HEt oxidation; type: cell-based; conditions: basal, 24 h compound; read-out: EC50 decrease of basal cellular superoxide levels (HEt)
# Experimental: The cells were seeded at a density of 3 × 10^3 cells/well into 96-wells black plates. After 24 h, the cells were incubated with different amounts of KH176(m) for 24 h. For the cellular superoxide measurements cells were then washed with M199 without phenol red and incubated with HEt (#D11347, ThermoFisher) in this same medium for 10 minutes. […] Total cellular fluorescence per well was normalized on the incubation with the probe but without compound (vehicle set as 100%). Experiments were performed at least three times with 3 wells per experiment.
# P4 cell line [5] = assay: Radical-Scavenging Capacity assay (CM-H2DCFDA, H2O2 or KO2); type: cell-based, human; conditions: P4 cells, 100 µM H2O2 or 1 mM KO2 (text: KOH), 3 µM compound
# Experimental: Cells were seeded at a density of 4 × 10^3 cells/well into 96-wells black plates. After 24 h the cells were loaded with 5 µM CM-H2DCFDA in M199 without phenol red for 20 min. The dye excess was washed with M199 without phenol red and immediately after, cells were treated acutely with different concentrations of the test compounds in M199 without phenol red. To generate radicals, 100 µM H2O2 or 1 mM KO2 were injected to the compound-treated cells and CM-DCF fluorescence was measured every 2 min for 70 cycles on a scanning microplate reader (BMG FLUOstar Omega; Ex. 480 nm, Em. 520 nm). The area under the generated curves was calculated using the Origin 6.1 software (OriginLab).
# P4 cell line [6] = assay: GSH measurements (GSH-Glo) under BSO; type: cell-based, human; conditions: increasing BSO 24 h, 1 µM compound
# Experimental: Cells were seeded at a density of 4 × 10^3 cells/well into 96-wells white plates (#655098, Greiner Bio-one). After 24 h the cells were treated with semi-logarithmic dilutions of BSO up to a concentration of 100 µM alone or in co-incubation with a fixed amount of the test compound. 24 h after the treatment, GSH levels were measured with the GSH-Glo™ Glutathione Assay (# V6911, Promega) according to the manufacturer instructions. Luminescence was measured on a scanning microplate reader (BMG FLUOstar Omega).
# [7] = KH176 25 mg/kg/dose BID oral, F, Day 1, plasma
# [8] = KH176 25 mg/kg/dose BID oral, F, Day 28, plasma
# [9] = KH176 25 mg/kg/dose BID oral, M, Day 1, plasma
# [10] = KH176 25 mg/kg/dose BID oral, M, Day 28, plasma
# [11] = KH176 75 mg/kg/dose BID oral, F, Day 1, plasma
# [12] = KH176 75 mg/kg/dose BID oral, F, Day 28, plasma
# [13] = KH176 75 mg/kg/dose BID oral, M, Day 1, plasma
# [14] = KH176 75 mg/kg/dose BID oral, M, Day 28, plasma
# [15] = KH176 250 mg/kg/dose BID oral, F, Day 1, plasma
# [16] = KH176 250 mg/kg/dose BID oral, F, Day 28, plasma
# [17] = KH176 250 mg/kg/dose BID oral, M, Day 1, plasma
# [18] = KH176 250 mg/kg/dose BID oral, M, Day 28, plasma
structure (smiles),measurement,setting,value
CC1=C(C)C(=O)C(CC[C@](C)(O)C(=O)N[C@@H]2CCCNC2)=C(C)C1=O [KH176m],"Brain to Plasma ratio, range (1–8 hours)",[1]; KH176 2 mg/kg i.v.,b.d.
same,"Heart to Plasma ratio, range (1–8 hours)",[1]; KH176 2 mg/kg i.v.,6.1–11.6
same,"Liver to Plasma ratio, range (1–8 hours)",[1]; KH176 2 mg/kg i.v.,29.0–57.1
same,"Skeletal muscle to Plasma ratio, range (1–8 hours)",[1]; KH176 2 mg/kg i.v.,8.2–20.5
same,AUCINF,"[1]; KH176 2 mg/kg i.v., plasma",146.9 ng·h/mL
same,AUClast,"[1]; KH176 2 mg/kg i.v., plasma",140.0 ng·h/mL
same,T1/2,"[1]; KH176 2 mg/kg i.v., plasma",0.5 h
same,C0 (i.v.),"[1]; KH176 2 mg/kg i.v., plasma, back extrapolated",359.3 ng/mL
same,"Brain to Plasma ratio, range (1–8 hours)",[1]; KH176 10 mg/kg p.o.,0.1–19.6
same,"Heart to Plasma ratio, range (1–8 hours)",[1]; KH176 10 mg/kg p.o.,2.1–14.6
same,"Liver to Plasma ratio, range (1–8 hours)",[1]; KH176 10 mg/kg p.o.,12.8–94.1
same,AUCINF,"[1]; KH176 10 mg/kg p.o., plasma",1260.8 ng·h/mL
same,AUClast,"[1]; KH176 10 mg/kg p.o., plasma",1225.2 ng·h/mL
same,Cmax (p.o.),"[1]; KH176 10 mg/kg p.o., plasma",1061.8 ng/mL
same,Tmax,"[1]; KH176 10 mg/kg p.o., plasma",0.25 h
same,"Skeletal muscle to Plasma ratio, range at 1 hour","[1]; KH176 10 mg/kg p.o., no concentrations detected at 8 hours",4.4–33.8^d
same,EC50,"P4 cell line [2]; P4 cells, 200 µM BSO, 24 h",38 nM and 38.7 nM
same,Viability of patient cells under BSO,"P4 cell line [2]; increasing BSO 24 h, 1 µM compound",fully protected
same,AUC0–24 h Ratio KH176m/KH176,"[3]; KH176 25 mg/kg/dose BID oral, F, Day 1",0.091
same,AUC0–24 h,[3]; [7],1140 ng·h/mL
same,Cmax,[3]; [7],85.9 ng/mL
same,T1/2,[3]; [7],4.5 h
same,AUC0–24 h Ratio KH176m/KH176,"[3]; KH176 25 mg/kg/dose BID oral, F, Day 28",0.074
same,AUC0–24 h,[3]; [8],1410 ng·h/mL
same,Cmax,[3]; [8],123 ng/mL
same,T1/2,[3]; [8],6.2 h
same,AUC0–24 h Ratio KH176m/KH176,"[3]; KH176 25 mg/kg/dose BID oral, M, Day 1",0.075
same,AUC0–24 h,[3]; [9],792 ng·h/mL
same,Cmax,[3]; [9],92.7 ng/mL
same,T1/2,[3]; [9],2.3 h
same,AUC0–24 h Ratio KH176m/KH176,"[3]; KH176 25 mg/kg/dose BID oral, M, Day 28",0.064
same,AUC0–24 h,[3]; [10],993 ng·h/mL
same,Cmax,[3]; [10],126 ng/mL
same,T1/2,[3]; [10],13.3 h
same,AUC0–24 h Ratio KH176m/KH176,"[3]; KH176 75 mg/kg/dose BID oral, F, Day 1",0.073
same,AUC0–24 h,[3]; [11],3090 ng·h/mL
same,Cmax,[3]; [11],203 ng/mL
same,T1/2,[3]; [11],30.9 h
same,AUC0–24 h Ratio KH176m/KH176,"[3]; KH176 75 mg/kg/dose BID oral, F, Day 28",0.067
same,AUC0–24 h,[3]; [12],5120 ng·h/mL
same,Cmax,[3]; [12],305 ng/mL
same,T1/2,[3]; [12],12.9 h
same,AUC0–24 h Ratio KH176m/KH176,"[3]; KH176 75 mg/kg/dose BID oral, M, Day 1",0.080
same,AUC0–24 h,[3]; [13],2640 ng·h/mL
same,Cmax,[3]; [13],187 ng/mL
same,T1/2,[3]; [13],3.5 h
same,AUC0–24 h Ratio KH176m/KH176,"[3]; KH176 75 mg/kg/dose BID oral, M, Day 28",0.067
same,AUC0–24 h,[3]; [14],3100 ng·h/mL
same,Cmax,[3]; [14],265 ng/mL
same,AUC0–24 h Ratio KH176m/KH176,"[3]; KH176 250 mg/kg/dose BID oral, F, Day 1",0.073
same,AUC0–24 h,[3]; [15],7630 ng·h/mL
same,Cmax,[3]; [15],415 ng/mL
same,AUC0–24 h Ratio KH176m/KH176,"[3]; KH176 250 mg/kg/dose BID oral, F, Day 28",0.071
same,AUC0–24 h,[3]; [16],17300 ng·h/mL
same,Cmax,[3]; [16],913 ng/mL
same,AUC0–24 h Ratio KH176m/KH176,"[3]; KH176 250 mg/kg/dose BID oral, M, Day 1",0.055
same,AUC0–24 h,[3]; [17],5170 ng·h/mL
same,Cmax,[3]; [17],312 ng/mL
same,T1/2,[3]; [17],104.4 h
same,AUC0–24 h Ratio KH176m/KH176,"[3]; KH176 250 mg/kg/dose BID oral, M, Day 28",0.066
same,AUC0–24 h,[3]; [18],10400 ng·h/mL
same,Cmax,[3]; [18],777 ng/mL
same,T1/2,[3]; [18],6.5 h
same,EC50,[4],1700 nM
same,Reduction of H2O2-induced radicals and O2.- (CM-H2DCFDA oxidation),P4 cell line [5],able to reduce the levels of both radicals
same,GSH level under BSO,P4 cell line [6],remained unaffected
